Source: article PMC10067956, “Pyrazole derivatives of pyridine and naphthyridine as proapoptotic agents in cervical and breast cancer cells” (Scientific Reports, 2023)
Where two headings read alike, the source gives them in different places. Each block holds one compound with its values, some of them ahead of it.

Experiments:
HeLa cells [1] = assay: MTT cell viability assay, HeLa; format: cell-based; settings: 24 h; for inhibition at 100 µM: read-out: %Inhibition at 100 µM, HeLa cell line; for IC50: read-out: IC50 (µM) ± SEM, HeLa Cell Line
Procedure: (§1) The anti-proliferative activity of the studied compounds was determined against breast (MCF-7) and cervical (HeLa) cancer cells by the MTT cell viability assay as described earlier[44],[45]. BHK-21 cells were used as non-cancerous cells to study the effect of these compounds on normal cells. Briefly, 1 × 10^4 cells/well were seeded in 96-well microtiter plate and placed in an incubator (Heracell™ VIOS 160i, Thermo-Fisher Scientific) set for 5% CO2 at 37 °C. The stock solutions of compounds were prepared at 10 mM concentration in DMSO. Initial working solutions were prepared in cell culture medium at 1 mM concentration. […] After 24 h, medium in each well was aspirated and cells were treated for 4 h with serum free medium containing 0.2 mg/mL MTT reagent. The solubilizing reagent (10% acidified sodium dodecyl sulfate in propanol in a 1:1 ratio) was added to solubilize formazan crystals. Plates were kept at 37 °C for 30 min and then placed on a gyratory shaker for few min for complete solubilization of formazan crystals. The optical density was measured at 570 nm by microplate reader and IC50 values were calculated from three independent experiments as previously reported.

MCF-7 cells = assay: MTT cell viability assay, MCF-7; format: cell-based; settings: for inhibition at 100 µM: MCF7, 100 µM, read-out: %Inhibition at 100 µM, MCF-7 cell line; for IC50: read-out: IC50 (µM) ± SEM, MCF-7 cell line
Procedure: as §1

BHK-21 cells = assay: MTT cell viability assay, non-cancerous BHK-21; format: cell-based, Baby Hamster; settings: 24 h, read-out: IC50 (µM) ± SEM, BHK-21 cell line
Procedure: as §1

HeLa cells [2] = assay: Alkaline comet assay; format: cell-based; settings: 5j 6.4 µM 24 h
Procedure: Comet assay is a sensitive method to determine DNA damage which was performed after some modifications in a published protocol. […] The cervical cancer (HeLa) cells were treated with IC50 value of potent compound 5j for 24 h. Cells were harvested, collected and centrifuged to obtain a pellet. Pelleted cells were re-suspended in media. Untreated cells were used as control cells. For the positive control, 2 × 10^4 cells were treated with 20 µM of freshly prepared hydrogen peroxide for 30 min. Slides were prepared by coating with 1% normal melting point agarose (NMPA) on one side and then dried. Samples (2 × 10^4 cells/sample) were re-suspended in 1 mL of PBS. In a tube, 0.4 mL cell suspension was mixed with 1.2 mL of 0.9% low melting point agarose (LMPA) and mixed thoroughly by pipetting. A cell suspension of 65 µL was laid on coated slide and evenly distributed by placing a coverslip over it. Slides were placed at − 20 °C for 10 min. Then the slides were placed at 4 °C in the dark in a lysis buffer of 100 mM EDTA, 10 mM Trizma base, 2.5 M sodium chloride, 10% DMSO and 1% Triton X-100 in distilled water with a pH of 10. After an overnight incubation, slides were washed with chilled distilled water. These slides were then placed in electrophoresis chamber (Wealtec, USA) having chilled (4 °C) alkali unwinding solution (300 mM sodium hydroxide and 1 mM EDTA in distilled water). Electrophoresis was carried out at an adjusted voltage (between 0.7 and 1.0 V/cm) for 35 min in an electrophoresis tank. Slides were then immersed in neutralization solution (0.4 M Trizma base in 800 mL water, pH 7.5) for 10 min in dark. Propidium iodide (20 µL of 0.01 mg/mL) was used as fluorescent dye to stain DNA. Slides were placed in dark at room temperature. After 10 min, images were captured using a fluorescence microscope (Nikon ECLIPSE Ni–U, Japan) at an excitation/emission wavelength of 493/632 nm. Microscopic images were analyzed using ImageJ (ij152-win-java8, National Institutes of Health, Bethesda, USA) and OpenComet (OpenComet_imagej_v1.3.1, USA) where the DNA content in the head and tail of the comets were automatically measured by the software. Results of three independent experiments were expressed as tail length ([…]), %DNA in comet tail and comet tail moment.

- IC50 (HeLa cells [1]; Homo sapiens): 38.5 ± 0.63 µM
Compound: Cc1[nH]nc2nc(N)c3c(N)nc4ccc(Br)cc4c3c12 [5l]
- inhibition at 100 µM (HeLa cells [1]; Homo sapiens): 81.6%
- inhibition at 100 µM (MCF-7 cells; Homo sapiens, 24 h): 28.2%
- IC50 (BHK-21 cells; Mesocricetus auratus): 152 ± 2.61 µM

- IC50 (HeLa cells [1]; Homo sapiens): 40.7 ± 1.42 µM
Compound: Nc1nc2ccc(Cl)cc2c2c1c(N)nc1n[nH]cc12 [5d]
- inhibition at 100 µM (HeLa cells [1]; Homo sapiens): 71.4%
- inhibition at 100 µM (MCF-7 cells; Homo sapiens, 24 h): 27.3%
- IC50 (BHK-21 cells; Mesocricetus auratus): 166.8 ± 0.95 µM

Compound: N.N.[Cl][Pt][Cl] [Cisplatin, reference compound]
- %Inhibition at 100 µM, HeLa cell line (HeLa cells [1]): 98.63%
- IC50 (HeLa cells [1]): 11.3 ± 0.78 µM
- %Inhibition at 100 µM, MCF-7 cell line (MCF-7 cells; 100 µM, 24 h): 73.12%
- IC50 (MCF-7 cells; 24 h): 6.22 ± 0.72 µM
- IC50 (BHK-21 cells): 24.7 ± 0.37 µM

Compound: Cc1[nH]nc2c1C1(C(=O)Nc3ccc(OC(F)(F)F)cc31)C(C#N)=C(N)N2 (centres unmarked) [4n]
- inhibition at 100 µM (HeLa cells [1]; Homo sapiens): 27.8%
- inhibition at 100 µM (MCF-7 cells; Homo sapiens, 24 h): 0.15%

Compound: Cc1[nH]nc2nc(N)c3c(N)nc4ccc([N+](=O)[O-])cc4c3c12 [5m]
- inhibition at 100 µM (HeLa cells [1]; Homo sapiens): 44.9%
- inhibition at 100 µM (MCF-7 cells; Homo sapiens, 24 h): 10.3%

- IC50 (HeLa cells [1]; Homo sapiens): 51.6 ± 0.99 µM
Compound: N#CC1=C(N)Nc2n[nH]cc2C12C(=O)Nc1ccc(Cl)cc12 (centres unmarked) [4d]
- %Inhibition at 100 µM, HeLa cell line (HeLa cells [1]): 99.45%
- inhibition at 100 µM (MCF-7 cells; Homo sapiens, 24 h): 18.9%
- IC50 (BHK-21 cells; Mesocricetus auratus): 246 ± 6.71 µM

- IC50 (HeLa cells [1]; Homo sapiens): 30.2 ± 1.15 µM
- IC50 (MCF-7 cells; Homo sapiens, MCF7, 24 h): 18.6 ± 0.29 µM
Compound: Nc1nc2ccc(Br)cc2c2c1c(N)nc1n[nH]cc12 [5e]
- inhibition at 100 µM (HeLa cells [1]; Homo sapiens): 98.3%
- inhibition at 100 µM (MCF-7 cells; Homo sapiens, 24 h): 96.8%
- IC50 (BHK-21 cells; Mesocricetus auratus): 84.1 ± 3.31 µM

Compound: N#CC1=C(N)Nc2n[nH]cc2C12C(=O)Nc1ccc(OC(F)(F)F)cc12 (centres unmarked) [4g]
- inhibition at 100 µM (HeLa cells [1]; Homo sapiens): 38.6%
- inhibition at 100 µM (MCF-7 cells; Homo sapiens, 24 h): 15.2%

Compound: Cc1[nH]nc2c1C1(C(=O)Nc3ccc(F)cc31)C(C#N)=C(N)N2 (centres unmarked) [4j]
- inhibition at 100 µM (HeLa cells [1]; Homo sapiens): 5.68%
- inhibition at 100 µM (MCF-7 cells; Homo sapiens, 24 h): 2.22%

- IC50 (HeLa cells [1]; Homo sapiens): 32.1 ± 1.14 µM
- IC50 (MCF-7 cells; Homo sapiens, MCF7, 24 h): 41.4 ± 0.47 µM
Compound: Cc1ccc2nc(N)c3c(N)nc4n[nH]cc4c3c2c1 [5b]
- inhibition at 100 µM (HeLa cells [1]; Homo sapiens): 98.4%
- inhibition at 100 µM (MCF-7 cells; Homo sapiens, 24 h): 96.4%
- IC50 (BHK-21 cells; Mesocricetus auratus): 126 ± 1.63 µM

Compound: OO [H2O2, Hydrogen Peroxide, reference compound]
- %DNA in tail ± SD (HeLa cells [2]): 55.11 ± 0.68%
- Tail length ± SD (HeLa cells [2]; H2O2 20 µM 30 min (positive control)): 84.14 ± 3.43 µM

Compound: Cc1ccc2c(c1)C1(C(=O)N2)C(C#N)=C(N)Nc2n[nH]c(C)c21 (centres unmarked) [4i]
- inhibition at 100 µM (HeLa cells [1]; Homo sapiens): 39.7%
- inhibition at 100 µM (MCF-7 cells; Homo sapiens, 24 h): 1.42%

Compound: Cc1[nH]nc2c1C1(C(=O)Nc3ccc([N+](=O)[O-])cc31)C(C#N)=C(N)N2 (centres unmarked) [4m]
- inhibition at 100 µM (HeLa cells [1]; Homo sapiens): 22.7%
- inhibition at 100 µM (MCF-7 cells; Homo sapiens, 24 h): 23.3%

Compound: Cc1[nH]nc2c1C1(C(=O)Nc3ccccc31)C(C#N)=C(N)N2 (centres unmarked) [4h]
- inhibition at 100 µM (HeLa cells [1]; Homo sapiens): 5.08%
- inhibition at 100 µM (MCF-7 cells; Homo sapiens, 24 h): 2.38%

- IC50 (HeLa cells [1]; Homo sapiens): 14.4 ± 1.21 µM
Compound: Cc1[nH]nc2nc(N)c3c(N)nc4ccccc4c3c12 [5h]
- inhibition at 100 µM (HeLa cells [1]; Homo sapiens): 93.6%
- inhibition at 100 µM (MCF-7 cells; Homo sapiens, 24 h): 37.8%
- IC50 (BHK-21 cells; Mesocricetus auratus): 31.4 ± 1.33 µM

- IC50 (HeLa cells [1]; Homo sapiens): 61.9 ± 1.76 µM
- IC50 (MCF-7 cells; Homo sapiens, MCF7, 24 h): 54.7 ± 0.63 µM
Compound: Cc1ccc2nc(N)c3c(N)nc4n[nH]c(C)c4c3c2c1 [5i]
- inhibition at 100 µM (HeLa cells [1]; Homo sapiens): 63.5%
- inhibition at 100 µM (MCF-7 cells; Homo sapiens, 24 h): 58.2%
- IC50 (BHK-21 cells; Mesocricetus auratus): 134 ± 1.71 µM

Compound: Cc1[nH]nc2c1C1(C(=O)Nc3ccc(Cl)cc31)C(C#N)=C(N)N2 (centres unmarked) [4k]
- inhibition at 100 µM (HeLa cells [1]; Homo sapiens): 3.84%
- inhibition at 100 µM (MCF-7 cells; Homo sapiens, 24 h): 11.9%

Compound: Cc1ccc2c(c1)C1(C(=O)N2)C(C#N)=C(N)Nc2n[nH]cc21 (centres unmarked) [4b]
- inhibition at 100 µM (HeLa cells [1]; Homo sapiens): 45.9%
- inhibition at 100 µM (MCF-7 cells; Homo sapiens, 24 h): 1.86%

- IC50 (HeLa cells [1]; Homo sapiens): 90.2 ± 2.18 µM
Compound: N#CC1=C(N)Nc2n[nH]cc2C12C(=O)Nc1ccc(F)cc12 (centres unmarked) [4c]
- %Inhibition at 100 µM, HeLa cell line (HeLa cells [1]): 57.80%
- inhibition at 100 µM (HeLa cells [1]; Homo sapiens): > 50%
- inhibition at 100 µM (MCF-7 cells; Homo sapiens, 24 h): 26.8%
- IC50 (BHK-21 cells; Mesocricetus auratus): 49.2 ± 2.01 µM

Compound: N#CC1=C(N)Nc2n[nH]cc2C12C(=O)Nc1ccc([N+](=O)[O-])cc12 (centres unmarked) [4f]
- inhibition at 100 µM (HeLa cells [1]; Homo sapiens): 26.2%
- inhibition at 100 µM (MCF-7 cells; Homo sapiens, 24 h): 5.23%

- IC50 (HeLa cells [1]; Homo sapiens): 10.3 ± 0.51 µM
Compound: Nc1nc2ccc(F)cc2c2c1c(N)nc1n[nH]cc12 [5c]
- inhibition at 100 µM (HeLa cells [1]; Homo sapiens): 69.2%
- inhibition at 100 µM (MCF-7 cells; Homo sapiens, 24 h): 4.12%
- IC50 (BHK-21 cells; Mesocricetus auratus): 42.4 ± 1.95 µM

- IC50 (HeLa cells [1]; Homo sapiens): 58.91 ± 0.39 µM
Compound: Nc1nc2ccccc2c2c1c(N)nc1n[nH]cc12 [5a]
- inhibition at 100 µM (HeLa cells [1]; Homo sapiens): 97.9%
- inhibition at 100 µM (MCF-7 cells; Homo sapiens, 24 h): 46.4%
- IC50 (BHK-21 cells; Mesocricetus auratus): 177 ± 6.11 µM

Compound: Cc1[nH]nc2c1C1(C(=O)Nc3ccc(Br)cc31)C(C#N)=C(N)N2 (centres unmarked) [4l]
- inhibition at 100 µM (HeLa cells [1]; Homo sapiens): 39.3%
- inhibition at 100 µM (MCF-7 cells; Homo sapiens, 24 h): 1.78%

- IC50 (HeLa cells [1]; Homo sapiens): 32.7 ± 2.16 µM
Compound: Cc1[nH]nc2nc(N)c3c(N)nc4ccc(OC(F)(F)F)cc4c3c12 [5n]
- inhibition at 100 µM (HeLa cells [1]; Homo sapiens): 63.2%
- inhibition at 100 µM (MCF-7 cells; Homo sapiens, 24 h): 10.5%
- IC50 (BHK-21 cells; Mesocricetus auratus): 46.6 ± 1.03 µM

Compound: Nc1nc2ccc(OC(F)(F)F)cc2c2c1c(N)nc1n[nH]cc12 [5g]
- inhibition at 100 µM (HeLa cells [1]; Homo sapiens): 61.3%
- inhibition at 100 µM (MCF-7 cells; Homo sapiens, 24 h): 31.4%

Compound: N#CC1=C(N)Nc2n[nH]cc2C12C(=O)Nc1ccccc12 (centres unmarked) [4a]
- inhibition at 100 µM (HeLa cells [1]; Homo sapiens): 34.5%
- inhibition at 100 µM (MCF-7 cells; Homo sapiens, 24 h): 28.2%

Compound: N#CC1=C(N)Nc2n[nH]cc2C12C(=O)Nc1ccc(Br)cc12 (centres unmarked) [4e]
- inhibition at 100 µM (HeLa cells [1]; Homo sapiens): 24.9%
- inhibition at 100 µM (MCF-7 cells; Homo sapiens, 24 h): 7.24%

- IC50 (HeLa cells [1]; Homo sapiens): 69.1 ± 0.99 µM
Compound: Nc1nc2ccc([N+](=O)[O-])cc2c2c1c(N)nc1n[nH]cc12 [5f]
- inhibition at 100 µM (MCF-7 cells; Homo sapiens, 24 h): 9.54%
- IC50 (BHK-21 cells; Mesocricetus auratus): 101 ± 2.61 µM
